Active and inactive are the calls of the source.
How the values were obtained:
Paired box protein Pax-8 = Paired box protein Pax-8 (Homo sapiens, UniProt Q06710); assay: inhibitors of PAX8-driven TPO luciferase reporter, dose response, RMG-I cells, cherry-pick (AID 687027); type: functional, cell-based;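 further: luciferase reporter driven by Pax8 target thyroperoxidase promoter measured by SteadyGlo luminescence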
[1] = A2780 ovarian cancer cell cytotoxicity, dose response, cytotoxicity control, plate reader, dry powder samples (AID 743046); type: functional, cell-based
[2] = HepG2 cell cytotoxicity, dose response, cytotoxicity control for Shn3 inhibitor project, CellTiter-Glo, cherry-picked (AID 624134); type: functional, cell-based
[3] = Shn3 3'UTR reporter inhibitors, dose response, cell-based, Clone20 osteoblasts, firefly luciferase, cherry-picked (AID 624132); type: functional;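 further: firefly luciferase luminescence from reporter carrying the Shn3 3'UTR in osteoblasts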
[4] = inhibitors of PGC1a acetylation in cells, dose response, cell-based, cherry-picked samples (AID 720514); type: functional;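 further: potency may reflect raised or lowered acetylation signal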
[5] = control 3'UTR Renilla luciferase suppression, dose response, counter-screen for Shn3 inhibitor project, cell-based, Clone20-Shn3RL, cherry-picked (AID 624133); type: functional
[6] = CellTiter-Glo luminescent dose response of DLD-1 viability loss (AID 1117352); type: functional
[7] = cytotoxicity toward HCT116 cells – cell-based, CellTiter-Glo luminescence, IC50, dose response (AID 1117332); type: functional; conditions: HCT-116
[8] = RKO cell viability reduction, dose response, CellTiter-Glo luminescence (AID 1117322); type: functional
[9] = Concentration-dependent survival of SW480 colon cancer line, luminescence detection with CellTiter-Glo, half-maximal inhibitory concentration (AID 1117338); type: functional
[10] = cytotoxicity toward Colo320 cells – cell-based, CellTiter-Glo luminescence, IC50, dose response (AID 1117334); type: functional; conditions: COLO 320
[11] = SNU-C1 cell viability reduction, dose response, CellTiter-Glo luminescence (AID 1117323); type: functional, cell-based
[12] = cytotoxicity toward HT-29 cells – cell-based, CellTiter-Glo luminescence, IC50, dose response (AID 1117330); type: functional
[13] = cytotoxicity in OVCAR8 ovarian cancer cells, dose response, PAX8 project, cell-based, plate reader, dry powder samples (AID 743197); type: functional; conditions: OVCAR-8
[14] = Vero cell cytotoxicity, dose response, cytotoxicity control for Vif-APOBEC3G degradation inhibitor project, Vero cells (AID 1117358); type: functional; conditions: Human immunodeficiency virus 1, Vero

Paired box protein Pax-8, sequence (Q06710 whole entry): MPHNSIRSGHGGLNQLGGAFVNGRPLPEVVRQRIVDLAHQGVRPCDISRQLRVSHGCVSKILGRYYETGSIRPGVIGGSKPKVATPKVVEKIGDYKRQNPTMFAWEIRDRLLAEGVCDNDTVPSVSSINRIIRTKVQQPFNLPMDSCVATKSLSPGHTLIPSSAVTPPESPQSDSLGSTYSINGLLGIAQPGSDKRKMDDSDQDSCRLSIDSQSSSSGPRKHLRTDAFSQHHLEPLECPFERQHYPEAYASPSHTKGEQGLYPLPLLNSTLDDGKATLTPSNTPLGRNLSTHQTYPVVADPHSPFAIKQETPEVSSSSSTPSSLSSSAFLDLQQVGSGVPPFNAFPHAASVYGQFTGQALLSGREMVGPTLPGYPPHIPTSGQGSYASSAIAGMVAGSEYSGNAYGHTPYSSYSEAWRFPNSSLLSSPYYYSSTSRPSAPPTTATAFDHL

Question: Which results are given for `C[C@@H]1CN([C@@H](C)CO)C(=O)Cc2cc(NC(=O)NC3CCCCC3)ccc2O[C@@H]1CN(C)Cc1ccc(-c2ccccc2)cc1`?
Answer: AC50 (Paired box protein Pax-8): 30.6 µM (active); AC50 [1]: 0.296 µM (active)

Question: With `COc1ccccc1NC(=O)Cn1c(C)cc(=O)c2cccc(OC)c21` as the molecule, how does the AC50 [2] read?
Answer: 48.1 µM (active)

Question: And the AC50 [3]?
Answer: 3.16 µM (active)

Question: And the AC50 [4]?
Answer: 35.8 µM (active)

Question: And the AC50 [5]?
Answer: 4.46 µM (active)

Question: Which IC50 [6] does the source give for `O=C(O)c1ccccc1S` [THIOSALICYLIC ACID] here?
Answer: > 20 µM (inactive)

Question: And the IC50 [7]?
Answer: > 20 µM (inactive)

Question: What about the IC50 [8] of the same molecule?
Answer: > 20 µM (inactive)

Question: What about the IC50 [9] of the same molecule?
Answer: > 20 µM (inactive)

Question: And the IC50 [10]?
Answer: > 20 µM (inactive)

Question: What about the IC50 [11] of the same molecule?
Answer: > 20 µM (inactive)

Question: And the IC50 [12]?
Answer: > 20 µM (inactive)

Question: Which AC50 (Paired box protein Pax-8) does the source give for `C[C@@H]1CN([C@H](C)CO)C(=O)c2cc(NS(=O)(=O)c3cccs3)ccc2O[C@@H](C)CCCCO[C@H]1CN(C)Cc1ccc(C(F)(F)F)cc1` here?
Answer: 8.66 µM (active)

Question: What about the AC50 [13] of the same molecule?
Answer: > 70 µM (inactive)

Question: For `Cc1cccc(N2CCN(C(=O)c3ccncc3)CC2)c1C`, which CC50 [14] is on record?
Answer: > 40 µM (active)

Reference: ChEMBL document CHEMBL1201862, “PubChem BioAssay data set” (2004)
